# Measurements published in patent US20100221823A1, “METHOD FOR CULTURING MAMMALIAN CELLS TO IMPROVE RECOMBINANT PROTEIN PRODUCTION” (Amgen Inc., priority 2007, published 2010).
# Columns and labels:
# [1] = test system: CHO cell line producing a recombinant IgG2 monoclonal antibody; test: Batch culture in serum-free DMEM/F12 with supplemental polyamines: viable cell density and viability; type: cell-based, Chinese hamster; settings: 3 days; for Culture viability versus cells without supplemental polyamines (FIG. 1b) / Viable cell density versus basal DMEM/F12 media (FIG. 1a): supplemental polyamine
# Experimental: To test the effect of high concentration polyamine media formulations on cell culture performance a CHO cell line producing a recombinant IgG2 monoclonal antibody was seeded at 2.5×10^5 cells/ml in serum-free DMEM/F12 (SAFC, Lenexa, Kans.). DMEM/F12 contains 503 nM putrescine as a component of the commercial formulation. […] Cells were maintained in suspension culture for three days at 36° C. in 5% CO2. Total cell density and viable cell density were measured using a Guava Easy-Cyte™ flow cytometer and Guava Viacount® Flex reagent (Hayward, Calif.) according to manufacture's instructions.
# Following three days culture in the polyamine-supplemented-DMEM/F12 media, viable cell density and culture viability were measured, see FIGS. 1a and 1b. Mean viability is presented as percent of viable cells and viable cell density is presented as number of cells/ml.
# [2] = test system: CHO cell line producing a recombinant IgG2 monoclonal antibody; settings: 6 days, VM-Soy
# Experimental: VM-Soy basal media contains 0.98 μM (0.1620 mg/l) putrescine as a component of its formulation. […] Cells were seeded at 2.5×10^5 cells/ml and maintained for six days at 36° C. in 5% CO2. Viable cell density and cell viability were measured as described above.
# Antibody titer was measured by immunoturbidietric analysis using a Poly-Chem® analyzer and High Sensitivity IgG reagents (Polymedco, Cortlandt Manor, N.Y.) according to the manufacturer's instructions.
# [3] = test system: CHO cell line producing a recombinant IgG1 monoclonal antibody; settings: fed-batch
# Experimental: The medium was an enriched formulation of DMEM/F12 that was less concentrated than the media used in Example 3. The medium already contained putrescine at 0.014 mM. […] Cells were maintained in suspension culture for 8 days at 36° C., 5% CO2. Cultures were fed a rich medium on the fourth day of culture. […] The feed volume was equal to seven percent of the initial batch culture volume. The feed medium contained putrescine and delivered 0.0019 mM putrescine to the cultures as a result of each feed. Glucose was also fed on the fourth day of culture in order to prevent depletion. Viable cell density and cell viability were measured as described above.
# Antibody titer was measured by immunoturbidimetric analysis using a Poly-Chem® analyzer and High Sensitivity IgG reagents (Polymedco, Cortlandt Manor, N.Y.) according to the manufacturer's instructions.
# [4] = test system: Human-human hybridoma HB4C5 cells; settings: spermine 2.4 mM or higher; increased over the control; cited from earlier work
# [5] = test system: four different recombinant monoclonal IgG2 antibody-producing CHO cell lines; settings: fed-batch, 10 μM spermine
# Experimental: The medium was an enriched formulation of DMEM/F12 medium (ingredients supplied by SAFC, Lenexa, Kans.). The medium contained putrescine at a concentration of 0.014 mM. […] Cells were maintained in suspension culture for 11 days at 36° C., 5% CO2. Cultures were fed an enriched feed medium on the fourth, seventh, and ninth days of culture. The feed volume was equal to nine percent of the initial batch culture volume. […] Glucose was also fed on the fourth, seventh, and ninth days of culture in order to prevent depletion. Viable cell density and cell viability were measured as described above.
# The titer of the antibodies produced in cell culture was determined using POROS® (Applied Biosystems) Protein A chromotagraphy HPLC chromotagraphy.
structure (smiles),measurement,setting,value
"Cl.Cl.Cl.Cl.NCCCNCCCCNCCCN [spermine, spermine tetrahydrochloride]",Spermine concentration giving the greatest increase in cell viability (FIG. 1b),[1]; DMEM/F12,50 µM
same,Cell viability increase compared to unsupplemented control media,"[1]; DMEM/F12, 10-50 μM spermine",up to 20%
same,Viable cell density increase compared to unsupplemented control media,"[1]; DMEM/F12, 10-50 μM spermine",up to 49%
same,Culture viability versus cells without supplemental polyamines (FIG. 1b),[1],higher
same,Viable cell density versus basal DMEM/F12 media (FIG. 1a),[1],higher
same,Spermine concentration giving the greatest increase in antibody concentration (FIG. 2c),[2],50 µM
same,Spermine concentration giving the greatest increase in viable cell density (FIG. 2a),[2],50 µM
same,Antibody titer increase (greatest),[2]; 50 μM spermine,9%
same,Cell viability increase (greatest),[2]; 50 μM spermine,29%
same,Viable cell density increase (greatest),[2]; 50 μM spermine,23%
same,Antibody titer increase compared to the untreated control,[2]; 10-200 μM spermine,5-9%
same,Cell viability increase compared to the unsupplemented control,[2]; 10-200 μM spermine,22-29%
same,Viable cell density increase compared to the unsupplemented control,[2]; 10-200 μM spermine,8-23%
same,Effect of spermine concentration on titer,[3]; 0.1-500 μM spermine,dose-dependent response
same,Viable cell density versus control (FIGS. 4a and 4b),"[3]; 8 days, 0.1-500 μM spermine",greater
same,Antibody titer increase compared to the untreated controls (FIG. 4d),"[3]; Day 8, 0.1-500 μM spermine",7-17%
same,Ending cell viability (FIG. 4c),"[3]; Day 8, 5-50 μM spermine",increased
same,Protein production,[4],less than 1 mg/l
same,Antibody titer increase compared to the untreated controls (FIG. 3c),[5]; range over four cell lines,7-17%
same,Cell viability versus control without spermine (FIG. 3b),[5]; 11 days,largely unaffected
same,Viable cell density versus control without spermine (FIG. 3a),[5]; 11 days,greater
"Cl.Cl.NCCCCN [putrescine, putrescine dihydrochloride]",Culture viability versus cells without supplemental polyamines (FIG. 1b),[1],higher
same,Viable cell density versus basal DMEM/F12 media (FIG. 1a),[1],higher
"NCCCCNCCCN [spermidine, spermidine tetrachdrochloride]",Culture viability versus cells without supplemental polyamines (FIG. 1b),[1],higher
same,Viable cell density versus basal DMEM/F12 media (FIG. 1a),[1],higher
